Assays:
[1] = tested on: CT26 live tumor fragments; assay: FLIM lifetime metabolic ratio (LMR) with ground truth dyes (PI, caspase 3/7) in CT26 live tumor fragments; assay type: cell-based, murine; conditions: for shift in the LMR relative to time zero healthy tissue: normalized LMR; for mode of cell death induced: confirmed with Caspase 3/7 and PI probes
Method: Live tumor fragments (LTFs) from flank expressed murine syngeneic CT26 tumors were used to assess cell state using a combination of OCM/dOCM and FLIM as described herein.
CT26 tumors were excised, bisected, and cut into 300×300×300 μm LTFs. These fragments were sorted into 18-well plates for analysis by microscopy. Fragments were incubated at 37° C. in 5% CO2 in non-phenol red containing RPMI for up to four hours before being placed in the microscope. During imaging the sample was maintained in a stage-top incubator at 37° C., 5% CO2, and 95% humidity. Images were taken using a custom four channel multi-photon microscope built on a modified Zeiss Axiovert platform using adapted Bruker components, the PrairieView software package, and electronic components to drive and control the scanning microscope. FLIM data was acquired using an 8 channel Swabian instruments time tagger.
FLIM images were acquired at 50 micron and 75 micron depths into the tissue. Live tumor fragment structure and metabolic status were assessed based on the intrinsically fluorescent metabolic co-factors […] (NAD(P)H), excited at 740 nm, and flavin adenine dinucleotide (FAD), excited at 880 nm. […] LMR histogram data from the fragments was normalized by taking the mode of the resultant histogram data at baseline from healthy tissue and setting this value to 0 across the time course. Data derived from the NAD(P)H, and FAD signals were used to segment the image into individual Voronoi cells seeded from nuclear segmentation. The normalized LMR value was determined for each Voronoi cell.
To qualify observed shifts in the LMR, the ground truth nuclear localizing dyes for cleaved caspase 3/7 activity (Invitrogen) or necrosis (propidium iodide) were added. Voronoi cells that stained positive for propidium iodide were marked as dead and those that were not stained with PI were marked as live.
Cell death via apoptosis was induced using staurosporine. […] (FIG. 8). […] Probe data from Caspase 3/7 and P1 confirmed the shift for LMR values indicating live tissue vs. dead tissue. Cell death via necroptosis was induced using Shikonin. […] PI confirmed the necroptosis signature.
To validate the imaging routine in a model with clinical relevancy, CT26 mLTFs were treated with a combination of […] (3MA) and doxorubicin over a duration of 48 hours (FIG. 10). For this, mLTFs were imaged every 24 hours following treatment for longitudinal assessment of chemotherapeutic efficacy. Linear metabolic shift values obtained in separate CT26 control experiments were applied to Voronoi segmented images to classify individual cells as alive or dead. Data were plotted in a time course indicating the activity of the drug combination.

[2] = tested on: mouse liver; assay: Multimodal dOCM and FLIM imaging of tissue viability in mouse liver after shikonin injection; assay type: cell-based; conditions: 100 nL, 6 μM, injected into the center of the tissue; PI staining
Method: 100 nL shikonin (6 μM) was injected into the center of the tissue to create necroptosis indicted by the white arrow. Scale bar: 100 μm. […] LMR values are indicated by the color bar.

[3] = tested on: mouse liver slice; assay: dOCM imaging of live and dead cells in a mouse liver slice after local staurosporine injection; assay type: cell-based; conditions: local injection of 200 nL, 2 μM in DMSO; 300 μm thick liver slice
Text: A 300 μm thick slice of liver is shown. […] Live cells in the live region (lower part in the xy plane) are highlighted in the dOCM image volume. The live cells show high contrast compared to dead regions in the three orthogonal views (xy, yz, and xz planes). The positions of the yz and xz slices are indicated by the yellow lines in the xy plane. Scale bar: 100 μm.
Live cells were visible in the dOCM image volume. […] Good correlation is observed between the dOCM signal and the expected LMR signatures in this monolithic tissue (FIG. 3). […] In those areas, the dOCM is used to establish a ground truth for living tissue that can in turn be used to qualify the LMR and set specific discreet baseline LMR values for living tissue in these regions. This is as opposed to using a generic, specific value determined with an assumption that the tissue is monolithic.

[4] = tested on: primary human lung cancer tissue; assay: Combined dOCM and FLIM imaging of tissue viability in a primary human lung cancer tissue slice; assay type: cell-based; conditions: 10 μM
Method: (§1) FIG. 16 presents multimodal imaging of tissue viability with primary human lung cancer tissue using combined dOCM and FLIM. (a) dOCM and LMR images of a human lung cancer tissue slice. (b) dOCM and LMR images of another lung tissue slice from the same sample. The metabolic state of this sample is different from the tissue slice in (a). (c) The tissue slice in (a) was treated with 10 μM staurosporine. The slice was imaged 24 hours after treatment. […] Scale bar: 100 μm.
as §1, with “bar” for “bar:”

SMILES | PI staining ([1]; CT26 live tumor fragment (FIG. 6)) | LMR values of PI-stained cells ([1]; CT26 live tumor fragment treated and stained with PI (FIG. 6)) | shift in the LMR relative to time zero healthy tissue ([1]; CT26 LTFs) | Caspase 3/7 staining ([1]; CT26 LTFs, stressed tissue) | mode of cell death induced ([1]; CT26 LTFs) | mode of cell death created [2] | tissue viability by dOCM [3] | cell state indicated by NADH and FAD phasor plots ([4]; 24 hours after treatment) | metabolic state (LMR) compared to that prior to treatment ([4]; 24 hours after treatment) | viable cells revealed by dOCM ([4]; imaged 24 hours after treatment)
Cn1cnc(N)c2ncnc1-2 [3-MA] | dead cells | relatively uniform low LMR values |  |  |  |  |  |  |  | 
CC(C)=CC[C@@H](O)C1=CC(=O)c2c(O)ccc(O)c2C1=O [Shikonin] |  |  | large, reproducible shift to the left | little to no Caspase 3/7 staining | necroptosis | necroptosis |  |  |  | 
CN[C@@H]1C[C@H]2O[C@@](C)([C@@H]1OC)n1c3ccccc3c3c4c(c5c6ccccc6n2c5c31)C(=O)NC4 [staurosporine] |  |  | large, reproducible shift to the right |  | apoptosis |  | caused tissue death | undergoing apoptosis | shifted | Less viable cells

Reference: patent US20260287575A1, “LABEL-FREE METHODS FOR ASSESSING CELL STATE IN A BIOLOGICAL SAMPLE” (priority 2023, published 2026)
